Experiments:
[1] = target: T1, THRα LBD (His-GST-dLBT-THRα LBD) (Homo sapiens, UniProt P10827); assay: THR-FRET (time-resolved fluorescence resonance energy transfer) agonist activity assay, THRα; format: biochemical; settings: 24 h at room temperature
T1 construct: made in house; host or cells: E. coli BL21 (DE3)
T1 sequence (P10827 163-407 isoform P10827-2): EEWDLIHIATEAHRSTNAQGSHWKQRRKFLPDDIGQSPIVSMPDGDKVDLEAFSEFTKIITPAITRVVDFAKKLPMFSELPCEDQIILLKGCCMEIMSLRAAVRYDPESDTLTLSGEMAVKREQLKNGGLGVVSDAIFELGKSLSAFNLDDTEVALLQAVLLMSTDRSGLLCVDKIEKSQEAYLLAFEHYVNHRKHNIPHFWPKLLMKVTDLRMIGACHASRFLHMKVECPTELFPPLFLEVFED
Excerpt: (§1) Experimental Example 1: Detection of Agonist Activities of Compounds Against THRα/β Based on Time-Resolved Fluorescence Resonance Energy Transfer (THR-FRET)
(§2) 1. Construction of THRα/β Overexpression Vectors
(§3) By visiting NCBI, the THRα/β LBD domain sequences were found. The pET21-His-GST-dLBT-THRα LBD and pET21-His-GST-dLBT-THRβLBD overexpression vectors were constructed by the fusion method, and sequenced to confirm the accuracy of the sequences.
(§4) 2. Prokaryotic Expression of Recombinant Proteins in E. coli
(§5) The THRα LBD and THRβLBD overexpression vectors confirmed by sequencing were transfected into E. coli cells BL21 (DE3), and spread on an ampicillin-resistant agar plate. Monoclones were picked out and amplified in an LB medium, and transferred into 1 L LB at a ratio of 1:100 for large-scale culture. When the OD value was at 0.8 to 1.2, 0.5 mM isopropyl-beta-D-thiogalactopyranoside (IPTG) was added, and induced overnight at 18° C. The bacteria were harvested, disrupted, and purified via the GST column and the molecular sieve to obtain two proteins His-GST-dLBT-THRα LBD and His-GST-dLBT-THRβLBD.
(§6) 3. Preparation of Compounds and Formulation of Reaction System
(§7) The proteins were taken out from a refrigerator at −80° C. The protein s with the GST-tagged THRα/p LBD domain and the Eu-labelled GST antibodies were thawed slowly on ice, and an assay buffer containing a final concentration of 5 mM dithiothreitol (DTT) was formulated.
(§8) 3.1 Preparation of Compounds
(§9) The starting concentration of the compound was 10 μM (in DMSO). The compound (100 μM in DMSO) was subjected to 3-fold isogradient dilution with DMSO to obtain a total of 11 isogradient concentrations. Subsequently, the above compounds at the isogradient concentration were further subjected to 50-fold dilution with an assay buffer containing 5 mM DTT.
(§10) 3.2 Formulation of THR-FRET Reaction System
(§11) The final concentrations of all components were calculated based on a system with a final volume of 20 µL per well. To […] of assay buffer containing 5 mM DTT, the GST-tagged THRα/β proteins, the SRC2 ([…]) polypeptide, XL665 (Cisobio, #610SAXLB), and the Eu-labeled GST antibody were added, and the final concentrations were 2 nM, 200 nM, 0.05 nM, and 7.6 nM respectively to formulate 18 μL of reaction mixture of the proteins, polypeptide, and antibody per well.
(§12) 18 μL of reaction mixture and 2 μL of diluted compound were added into an optiplate-384-well plate, and reacted at room temperature for 24 h.
(§13) The plate was read using an MD i3x multi-mode microplate reader with the excitation and emission wavelengths of 340 nm and 665 nm, respectively. The intensity of light at a wavelength of 616 nm generated by europium excited by 340 nm wavelength light from the MD i3x multi-mode microplate reader was used as the background. According to the different activation degrees of different compounds against THRα and THRβ, the intensity of the emission light at a wavelength of 665 nm generated by exciting XL665 with the exciting light at a wavelength of 616 nm was varied. The intensity ratio between these two light wavelengths (665 nm, 616 nm) was used as the activation activity of the compound against THRα or THRβ, and was normalized against the ratio in the vehicle DMSO group. The dose-response curve was fitted with four parameters using the GraphPad Prism 6.0 software, and the EC50 value was calculated.

[2] = target: T2, THRβ LBD (His-GST-dLBT-THRβLBD) (Homo sapiens, UniProt P10828); assay: THR-FRET (time-resolved fluorescence resonance energy transfer) agonist activity assay, THRβ; format: biochemical
T2 construct: made in house; host or cells: E. coli BL21 (DE3)
T2 sequence (P10828 217-461 limits assumed): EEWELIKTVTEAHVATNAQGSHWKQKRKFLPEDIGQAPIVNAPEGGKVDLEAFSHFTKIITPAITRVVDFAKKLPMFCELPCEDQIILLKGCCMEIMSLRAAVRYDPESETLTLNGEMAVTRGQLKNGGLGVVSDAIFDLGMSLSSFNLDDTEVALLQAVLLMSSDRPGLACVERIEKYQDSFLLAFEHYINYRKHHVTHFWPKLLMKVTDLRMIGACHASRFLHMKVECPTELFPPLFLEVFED
Excerpt: as §1, §2, §3, §4, §5, §6, §7, §8, §9, §10, §11, §12, §13

THRβ (pGAL4-THRβ-LBD) = target: T3, THRβ (pGAL4-THRβ-LBD) (Homo sapiens, UniProt P10828); assay: Reporter gene (Dual-Glo luciferase) agonist activity assay in HEK293T cells, THRβ; format: cell-based; settings: ratio of EC50 THRα/THRβ
T3 construct: expressed in transfected cells; host or cells: HEK293T
T3 sequence (P10828 217-461): T2 sequence (P10828 217-461 limits assumed)
Excerpt: Experimental Example 2: Detection of Agonist Activities of Compounds Against THRα and THRβ Based on Reporter Gene Activity Assay Method
1.1 Construction and Preparation of Plasmids pGAL4-THR-LBD and pG5-Luc
The pGAL4-THRα-LBD and pGAL4-THRβ-LBD plasmids used in the reporter gene assay system were constructed by a conventional molecular cloning method comprising the following main steps: the cDNA sequences of THRα (NM_003250) and THRβ(NM_000461) corresponding to the amino acid sequences of THRα (163-407AA) and THRβ(217-461AA) were inserted into the BamHI and NotI enzyme digestion sites of the pGAL4 vector by the PCR technique respectively to obtain the pGAL4-THRα-LBD and pGAL4-THRβ-LBD plasmids; the pG5-Luc (#E249A) and pRL-TK (#E2241) plasmids were purchased from Promega; the plasmids were transfected into the E. coli DH5a by the CaCl2 method, and after further culture and amplification, the plasmids were purified by Plasmid Extraction Kits (TIANGEN, #D107) to obtain the corresponding plasmid DNAs.
1.2 Co-Transfection of Plasmids into HEK293T Cells and Treatment with Compounds
The HEK293T cells were inoculated into a 96-well plate at a density of 1×10^4/well the day before plasmid transfection. Cell transfection was conducted according to the instructions of the transfection reagent FuGENE® HD (Promega, #E2311). The main steps were as follows: taking one well as an example here, the plasmids pGAL4-THRα-LBD or pGAL4-THRβ-LBD, pG5-Luc, and pRL-TK were added in the proportions of 20 ng, 50 ng, and 5 ng to 10 μL of Opti-MEM™ I medium (Gibco, #11058021) and mixed well; subsequently, 0.25 μL of FuGENE® HD was added, mixed well, and then left at room temperature for 5 min; afterwards, […] was added to the cell wells containing 100 μL of culture medium. After cell co-transfection for 6 h, the compound was diluted in a 3-fold gradient with dimethyl sulfoxide at the highest concentration of 1 μM. The compound was added to the cell culture medium at a total of 10 concentrations for treatment for 24 h. There were a total of two duplicate wells for each concentration. Triiodothyronine (T3) was used as the positive control.
1.3 Dual-Glo Luciferase Assay
After the cells were treated with the compound for 24 h, the cells were assayed according to the instructions of Dual-Glo® Luciferase Assay System (Promega, #E2940). The main steps were as follows: 50 μL of culture medium was aspirated from each well and discarded, and then 50 μL of Dual-Glo® Luciferase reagent was added and oscillated at room temperature for 10 min; 80 μL of lysis reaction solution was measured into a white opaque optiPlate-96-well plate, and the luminescence signal value (Firefly-Luc) of the Firefly luciferase was detected using an MD i3x multi-mode microplate reader; 40 μL of Dual-Glo® Stop & Glo® reagent was then added, and oscillated at room temperature for 10 min; the luminescence signal value (Renilla-Luc) of the Renilla luciferase was then detected using an MD i3x multi-mode microplate reader. The Firefly-Luc/Renilla-Luc ratio was used as the activation activity of the compound against THR, and was normalized against the ratio in the vehicle DMSO group; the dose-response curve was fitted with four parameters using the GraphPad Prism6.0 software, and the EC50 value was calculated.

For `Cc1nn(-c2cc(Cl)c(Cn3ccc(=O)c4c(C)cccc43)c(Cl)c2)c(=O)[nH]c1=O` [Compound 44], the EC50 [1] was 100 to 1000 nM, the EC50 ([2]; 24 h at room temperature) was 50 to 100 nM and the “Selectivity (THRα/THRβ)” value ([2]; ratio of EC50 THRα/THRβ) was “†† (10 > THRα/β > 1)”. For the same compound, the “Selectivity (THRα/THRβ)” value (THRβ (pGAL4-THRβ-LBD)) was “† (5 ≥ THRα/β)”.
